Here are results for three molecules from US6174897A, “Bis-(quinolyl)-diamines” (Bayer Aktiengesellschaft, priority 1996, dated 2001).

Experiment [1] concerns the target apamin binding sites / apamin receptors (bovine cerebral membrane, calf hippocampus). In words: Binding of 125I-apamin to bovine cerebral membrane. The settings on record: 125I-apamin 30 pM, calf hippocampus membranes. Here is the method: 1) Binding of ^125 1I-apamine to Bovine Cerebral Membrane
Calf brains were obtained from the local abattoir. The hippocampus was prepared on ice and a membrane suspension was made up by homogenization twice in buffer (100 mM Tris-HCl, KCl 5 mM, pH 7.4) and centrifugation at 43,000×g. In a total volume of 500 μl, the incubation mixture contained 200 μg of membrane protein, 30 pM ^125 I-apamin and test substances in the concentration range 1×10^-9 to 1×10^-4 M. The non-specific binding of ^125 I-apamine was determined in the presence of 1×10^-7 M unlabelled apamin.
After preincubation for 30 min at room temperature (test substances and membrane homogenate), the samples were placed on ice for 10 min before the radioligand was added. The main incubation time was 60 min on ice. When the reaction time had elapsed, an excess of ice-cooled incubation buffer was added to each sample and the mixture was filtered with suction through cellulose acetate/nitrate membrane filters. The amount of bound ^125 I-apamin was measured with a gamma counter.

Experiment [2] deals with apamin-sensitive potassium channels (PC12 cells). In words: Non-radioactive Rb+ efflux assay in PC12 cells. Type of experiment: cell-based. The protocol: 2) Non-radioactive Rb^+ Efflux Assay for the Identification of Potassium Channel Modulators
The cellular potassium in PC12 cells is exchanged with rubidium, which is not present in the cells. This exchange is performed by incubating the cells over a period of 4 h in a physiological buffer containing 5.4 mM RbCl without KCl. This rubidium subsequently serves as a tracer for potassium. The cells laden with Rb^+ in this way are washed three times and then stimulated by depolarization with 50 mM KCl to open potassium channels (10 min), causing Rb^+ to flow out of the cells into the supernatant according to the concentration gradient.
The rubidium contents in the cell supernatant and in the residual cells after they have been lysed with 1% Triton X-100 are then determined by means of atomic absorption spectroscopy. The relative proportion of rubidium in the cell supernatent (=Rb^+ efflux) is used as a measure of the potassium channel activity.
The effect of substances on the channel activity is measured by co-incubating the test substance over the ten-minute stimulation period and determining its effect on the Rb^+ efflux in the manner described above.

Molecule `CCc1cc(NCCCCCNc2cc(CC)nc3ccccc23)c2ccccc2n1` [Example 1] gave a Ki in experiment [1] of 17 nM. Besides, the “% inhibition of the Rb efflux” value in experiment [2] (test concentration of 10 μM) is given as 77%.

In experiment [1], `CCCc1cc(NCCCCCNc2cc(CCC)nc3ccccc23)c2ccccc2n1` [Example 2] registered an inhibition constant (Ki) of 13 nM.

With `Cc1cccc2c(NCCCCCNc3cc(C(C)C)nc4c(C)cccc34)cc(C(C)C)nc12` [Example 4], the “% inhibition of the Rb efflux” value in experiment [2] (at 1 μM) stood at 68%; in experiment [2] (test concentration of 10 μM) it was 75%.

In general, Ki refers to a measure of affinity in units of concentration, obtained from inhibition or displacement. A higher Ki goes with a looser hold on the target.
